Experimental data taken from ChEMBL document CHEMBL4406813, “2-Amino-2,3-dihydro-1H-indene-5-carboxamide-Based Discoidin Domain Receptor 1 (DDR1) Inhibitors: Design, Synthesis, and in Vivo Antipancreatic Cancer Efficacy” (J Med Chem, 2019).

Assays:
[1] = in vivo; details: Sprague-Dawley, rat, po, 25 mg/kg
[2] = in vivo; details: Sprague-Dawley, rat, iv, 5 mg/kg
[3] = in vivo; details: Sprague-Dawley, rat, iv, 5 mg/kg; remark: listed apart in the source

- Cmax [1]: 15400 ng/mL
- AUC(0-inf) [2]: 16900 ng·h/mL
- Cmax [3]: 14700 ng/mL
Compound: Cc1cn(-c2cc(NC(=O)c3ccc4c(c3)C[C@H](N(C)c3cncnc3)C4)cc(C(F)(F)F)c2)cn1
